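96-well plates; 48 h exposure; 5 concentrations. Endpoints by linear interpolation between flanking doses. Not reached: highest tested concentration assigned. Abbreviation: GI50, concentration required for 50% inhibition of growth.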 The source made the active and inactive calls. No stated cut-off is given here; in the data, active = GI50 up to about 1.1 µM and inactive = higher.
Experiments:
Assay in all cases: NCI-60 cell line screen, 48 h
[1] = test system: 786-0
[2] = test system: A498
[3] = test system: A549
[4] = test system: ACHN
[5] = test system: BT-549
[6] = test system: CAKI-1
[7] = test system: CCRF-CEM
[8] = test system: COLO 205
[9] = test system: DU-145
[10] = test system: EKVX
[11] = test system: HCC 2998
[12] = test system: HCT-116
[13] = test system: HCT-15
[14] = test system: HL-60
[15] = test system: HOP-62
[16] = test system: HOP-92
[17] = test system: HT-29
[18] = test system: Hs-578T
[19] = test system: IGROV-1
[20] = test system: K562
[21] = test system: KM12
[22] = test system: LOX IMVI
[23] = test system: M14
[24] = test system: MCF7
[25] = test system: MDA-MB-231
[26] = test system: MDA-MB-435
[27] = test system: MDA-N
[28] = test system: MOLT-4
[29] = test system: Malme-3M
[30] = test system: NCI-H226
[31] = test system: NCI-H23
[32] = test system: NCI-H460
[33] = test system: NCI-H522
[34] = test system: NCI/ADR-RES
[35] = test system: OVCAR-3
[36] = test system: OVCAR-4
[37] = test system: OVCAR-5
[38] = test system: OVCAR-8
[39] = test system: PC-3
[40] = test system: RPMI-8226
[41] = test system: RXF 393
[42] = test system: SF-268
[43] = test system: SF-295
[44] = test system: SF-539
[45] = test system: SK-MEL-28
[46] = test system: SK-MEL-2
[47] = test system: SK-MEL-5
[48] = test system: SN12C
[49] = test system: SNB-19
[50] = test system: SNB-75
[51] = test system: SR
[52] = test system: SW-620
[53] = test system: TK-10
[54] = test system: U-251
[55] = test system: UACC-257
[56] = test system: UO-31

SMILES: CCCCCc1cc2cc3c(c(O)c2c(=O)[nH]1)C1(CCC3)C(=O)c2c(O)ccc(O)c2C1=O
- GI50 [1]: > 100 µM (inactive)
- GI50 [2]: > 100 µM (inactive)
- GI50 [3]: > 100 µM (inactive)
- GI50 [4]: > 100 µM (inactive)
- GI50 [5]: > 100 µM (inactive)
- GI50 [6]: > 100 µM (inactive)
- GI50 [7]: > 100 µM (inactive)
- GI50 [8]: > 100 µM (inactive)
- GI50 [9]: > 100 µM (inactive)
- GI50 [10]: > 100 µM (inactive)
- GI50 [11]: > 100 µM (inactive)
- GI50 [12]: > 100 µM (inactive)
- GI50 [13]: > 100 µM
- GI50 [14]: > 100 µM (inactive)
- GI50 [15]: 83.9 µM (inactive)
- GI50 [16]: > 100 µM (inactive)
- GI50 [17]: > 100 µM (inactive)
- GI50 [18]: > 100 µM (inactive)
- GI50 [19]: > 100 µM (inactive)
- GI50 [20]: > 100 µM (inactive)
- GI50 [21]: > 100 µM (inactive)
- GI50 [22]: > 100 µM (inactive)
- GI50 [23]: > 100 µM (inactive)
- GI50 [24]: > 100 µM (inactive)
- GI50 [25]: > 100 µM (inactive)
- GI50 [26]: > 100 µM (inactive)
- GI50 [27]: > 100 µM (inactive)
- GI50 [28]: > 100 µM (inactive)
- GI50 [29]: > 100 µM (inactive)
- GI50 [30]: > 100 µM (inactive)
- GI50 [31]: > 100 µM (inactive)
- GI50 [32]: > 100 µM (inactive)
- GI50 [33]: > 100 µM (inactive)
- GI50 [34]: 99.5 µM (inactive)
- GI50 [35]: > 100 µM (inactive)
- GI50 [36]: 88.5 µM (inactive)
- GI50 [37]: > 100 µM (inactive)
- GI50 [38]: 59.3 µM (inactive)
- GI50 [39]: > 100 µM (inactive)
- GI50 [40]: > 100 µM (inactive)
- GI50 [41]: 43 µM (inactive)
- GI50 [42]: > 100 µM (inactive)
- GI50 [43]: > 100 µM (inactive)
- GI50 [44]: > 100 µM (inactive)
- GI50 [45]: > 100 µM (inactive)
- GI50 [46]: 66.7 µM (inactive)
- GI50 [47]: > 100 µM (inactive)
- GI50 [48]: > 100 µM (inactive)
- GI50 [49]: > 100 µM (inactive)
- GI50 [50]: 58.2 µM (inactive)
- GI50 [51]: > 100 µM (inactive)
- GI50 [52]: 56 µM (inactive)
- GI50 [53]: 38.6 µM (inactive)
- GI50 [54]: > 100 µM (inactive)
- GI50 [55]: > 100 µM (inactive)
- GI50 [56]: > 100 µM (inactive)

From ChEMBL document CHEMBL1201862, “PubChem BioAssay data set” (2004)
